In PMC6099630, “Synthesis, Antiviral and Cytotoxic Activity of Novel Terpenyl Hybrid Molecules Prepared by Click Chemistry” (Molecules : A Journal of Synthetic Chemistry and Natural …, 2018):

How the values were obtained:
HSV-1 KOS strain = test: Cytopathic effect assay, HSV-1 KOS; type: cell-based, herpes simplex virus type 1 (HSV-1); settings: Human alphaherpesvirus 1; inhibition of 50% viral cytopathic effect; m.o.i. 0.1 PFU/cell, 48 h p.i.; nonlinear regression
Experimental: (§1) The synthetic compounds and acyclovir (ACV, Sigma) were dissolved in dimethylsulfoxide (DMSO) and diluted with Eagle’s minimal essential medium supplemented with 1.5% inactivated fetal bovine serum (FBS) and 50 μg/mL gentamicin (MEM 1.5%).
(§2) Vero and Hep-2 cells were grown in MEM supplemented with 10% inactivated FBS and 50 µg/mL gentamicin and maintained in MEM 1.5%. Raw 264.7 cells were grown in Dulbecco’s Modified Eagle’s Medium (DMEM) supplemented with 10% FBS and 50 µg/mL gentamicin and maintained in DMEM 1.5%. C6 cells were grown in DMEM-F12 supplemented with 2.5% FBS50 µg/mL gentamicin and 15% horse serum (HS) and maintained in DMEM-F12 supplemented with 1.5% FBS. HSV-1 KOS, thymidine kinase-deficient (TK−) B2006 and Field strains of HSV-1 were used and propagated at low multiplicity of infection (m.o.i.) on Vero cells.
(§3) Cells grown in 96-well plates were infected or not with HSV-1 (KOS, Field and B2006 strains) at a m.o.i. of 0.1 PFU/cell. After 1-h adsorption at 37 °C, the inoculum was removed and medium containing or not the compounds was added, in triplicate. […] Then, cells were fixed with 10% formaldehyde for 15 min at room temperature, washed once with distilled water and stained with 0.05% crystal violet in 10% ethanol over 30 min. […] The absorbance of each well was measured on an Eurogenetics MPR-A 4i microplate reader using a test wave-length of 590 nm.

[1] = tested on: HSV-1 B2006 strain (thymidine kinase-deficient, TK−); test: microbe, parasite or virus in culture; type: cell-based, herpes simplex virus type 1 (HSV-1); settings: Human alphaherpesvirus 1, 48 h, read-out: EC50 B2006
Experimental: as §1, §2, §3

in vitro = type: cell-based; settings: African green monkey
Experimental: as §1, §2
Cell viability was determined using the tetrazolium salt MTT (3-(4,5-dimethylthiazol-2-yl)-2,5-diphenyltetrazolium bromide, Sigma) according to the manufacturer’s instructions. […] The absorbance was measured on a MPR-A 4i microplate reader (Eurogenetics, Tipperary, Ireland) using a test wavelength of 570 nm and a reference wavelength of 630 nm. Results were expressed as a percentage of absorbance of treated cell cultures with respect to untreated ones. […]

HSV-1 Field strain = test: Cytopathic effect assay, HSV-1 Field; type: cell-based, herpes simplex virus type 1 (HSV-1); settings: Human alphaherpesvirus 1; inhibition of 50% viral cytopathic effect; m.o.i. 0.1 PFU/cell, 48 h p.i.; nonlinear regression
Experimental: as §1, §2, §3

With `Nc1nc2c(ncn2COCCO)c(=O)[nH]1` [ACV, Acyclovir] the EC50 (HSV-1 KOS strain) was 8.2 ± 1 µM, the EC50 [1] was 50 ± 2 µM and the CC50 at 48 h (in vitro) was > 1000 µM. The EC50 (HSV-1 Field strain) was 73 ± 1 µM.
